Values quoted from earlier work as cited in patent US12062414B1, “System and method for predicting susceptibility of genus Klebsiella to amikacin” (Peking Union Medical College Hospital, Chinese Academy of …, priority 2023, dated 2024).

Test system: carbapenem-resistant Klebsiella pneumoniae
Details: isolated from 2014-2017; data from 252/403

Question: For `NCC[C@H](O)C(=O)N[C@@H]1C[C@H](N)[C@@H](O[C@H]2O[C@H](CN)[C@@H](O)[C@H](O)[C@H]2O)[C@H](O)[C@H]1O[C@H]1O[C@H](CO)[C@@H](O)[C@H](N)[C@H]1O` [amikacin], which “resistance rate to amikacin” value is on record?
Answer: 62.5%
